Results from US8288550B2, “Crystalline form of a benzimidazole-carboxamide medicinal compound” (Theravance, Inc., priority 2005, dated 2012).

Legend:
[1] = Solid state stability assessment (40° C. and 75% RH); assay type: physicochemical; settings: three months, open glass vials
Description: Solid State Stability Assessment
Samples of the crystalline compound of Form I, prepared according to the process of Example 3, were stored in multiple open glass vials at 40° C. and 75% RH. At specific intervals, the contents of a representative vial was removed and analyzed by DSC, TGA, PXRD, and by HPLC for chemical purity.

[2] = Thermal gravimetric analysis (TGA); assay type: physicochemical; settings: heating rate 10° C./min
Description: Thermogravimetric analysis (TGA) was performed using a TA Instruments Model Q-500 module. Data were collected and analyzed using TA Instruments Thermal Advantage for Q Series™ software. A sample weighing about 2 mg was placed in an aluminum pan on a platinum cradle and scanned from ambient temperature to about 300° C. with a linear heating rate of 10° C./min. The balance and furnace chambers were purged with nitrogen during use.

[3] = Stability to milling of particles; assay type: physicochemical; settings: milled from mean particle size about 470 microns to about 15, 22 or 29 microns
[4] = Dynamic moisture sorption assessment; assay type: physicochemical
Description: Dynamic Moisture Sorption Assessment
Dynamic moisture sorption (DMS) assessment was performed at 25° C. using a VTI atmospheric microbalance, SGA-100 system (VTI Corp., Hialeah, Fla. 33016). A sample size of approximately 5-10 mg was used and the humidity was set at the ambient value at the start of the analysis. A typical DMS analysis consisted of three scans: ambient to 2% relative humidity (RH), 2% RH to 90% RH, 90% RH to 5% RH at a scan rate of 5% RH/step. The mass was measured every two minutes and the RH was changed to the next value (±5% RH) when the mass of the sample was stable to within 0.02% for 5 consecutive points.

Caco-2 cell monolayer = settings: human, Caco-2, 1 h
Description: In Vitro Model of Oral Bioavailability: Caco-2 Permeation Assay
The Caco-2 permeation assay was performed to model the ability of test compounds to pass through the intestine and get into the blood stream after oral administration. The rate at which test compounds in solution permeate a cell monolayer designed to mimic the tight junction of human small intestinal monolayers was determined.
Caco-2 (colon, adenocarcinoma; human) cells were obtained from ATCC (American Type Culture Collection; Rockville, Md.). For the permeation study, cells were seeded at a density of 63,000 cells/cm^2 on pre-wetted transwells polycarbonate filters (Costar; Cambridge, Mass.). A cell monolayer was formed after 21 days in culture. Following cell culture in the transwell plate, the membrane containing the cell monolayer was detached from the transwell plate and inserted into the diffusion chamber (Costar; Cambridge, Mass.). The diffusion chamber was inserted into the heating block which was equipped with circulating external, thermostatically regulated 37° C. water for temperature control. […]
The permeation study was performed with test compound concentrations at 100 μM and with ^14C-mannitol to monitor the integrity of the monolayer. […] Samples were analyzed by HPLC or liquid scintillation counting for test compound and mannitol concentrations. The permeation coefficient (Kp) in cm/sec was calculated.

| change in DSC, TGA, PXRD after storage [1] | onset of degradation (TGA) [2] | changes by DSC, TGA or PXRD after milling [3] | weight change (moisture sorption) ([4]; 2% to 90% RH, 25° C./room temperature) | weight change (moisture sorption) ([4]; critical humidity range of 40% to 75% RH) | permeation coefficient Kp (Caco-2 cell monolayer) | SMILES |
| --- | --- | --- | --- | --- | --- | --- |
| no detectable changes | above 240 °C | no changes detectable | less than 0.25% | less than 0.1% | – | COC(=O)N1CCC(CN2CCC(CNC(=O)c3cccc4[nH]c(C(C)C)nc34)CC2)CC1 [Form I, 4-(4-{[(2-isopropyl-1H-benzoimidazole-4-carbonyl)amino]methyl}-piperidin-1-ylmethyl)piperidine-1-carboxylic acid methyl ester] |
| – | – | – | – | – | greater than 50×10^−6 cm/sec | COC(=O)N1CCC(CN2CCC(CNC(=O)c3cccc4[nH]c(C(C)C)nc34)CC2)CC1 [compound of the invention, 4-(4-{[(2-isopropyl-1H-benzoimidazole-4-carbonyl)amino]methyl}-piperidin-1-ylmethyl)piperidine-1-carboxylic acid methyl ester] |
